Assays:
EGFR = EGFR (Homo sapiens, UniProt P00533); test: EGFR signaling (pEGFR Tyr1068/total EGFR MSD) in A431 cells; assay type: cell-based; design: endogenous in cells; host or cells: A431, N87; settings: for EC50: A431 cells, read-out: A431 pEGFR EC50; for Selectivity A431 EC50/BT474 EC50: ratio A431 pEGFR EC50 to BT474 pHER2 EC50; for Selectivity A431 EC50/HEKYVMA EC50: ratio A431 pEGFR EC50 to HEK YVMA pHER2 EC50
Procedure, shortened: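 Serum-starved A431 cells were pretreated 1.5 h in 1% FBS with compound (0.005–10 μM, 0.1% DMSO), then stimulated with 100 ng/mL human EGF for 10 min. Lysate pEGFR Tyr1068 was measured by MSD and normalized to total EGFR as % DMSO control; EC50 from variable-slope sigmoidal fit.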

HER2YVMA = HER2YVMA (Homo sapiens, UniProt P04626, INS775YVMA); test: HER2 signaling (pHER2) in Hek293-HER2YVMA cells; assay type: cell-based; design: expressed in transfected cells; host or cells: HEK293 (pool), Ba/F3 (clones), BEAS2B (clones); lentiviral vector pCDH-CMV-MCS-EF1-Neo; settings: 1.5 hr compound, 1% FBS, read-out: HEKYVMA pHER2 EC50
Procedure, shortened: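 Lentivirally transduced HER2YVMA lines (HEK293 pool; BEAS2B clone) treated 1.5 h at 37 °C in 1% FBS medium with compound at 0.0005–1.1 μM. Lysates read by MSD immunoassay for pHER2 (Tyr1248) normalized to total HER2, as % DMSO control; EC50 from variable-slope sigmoidal fit.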

EGFR, sequence (P00533 25-1210): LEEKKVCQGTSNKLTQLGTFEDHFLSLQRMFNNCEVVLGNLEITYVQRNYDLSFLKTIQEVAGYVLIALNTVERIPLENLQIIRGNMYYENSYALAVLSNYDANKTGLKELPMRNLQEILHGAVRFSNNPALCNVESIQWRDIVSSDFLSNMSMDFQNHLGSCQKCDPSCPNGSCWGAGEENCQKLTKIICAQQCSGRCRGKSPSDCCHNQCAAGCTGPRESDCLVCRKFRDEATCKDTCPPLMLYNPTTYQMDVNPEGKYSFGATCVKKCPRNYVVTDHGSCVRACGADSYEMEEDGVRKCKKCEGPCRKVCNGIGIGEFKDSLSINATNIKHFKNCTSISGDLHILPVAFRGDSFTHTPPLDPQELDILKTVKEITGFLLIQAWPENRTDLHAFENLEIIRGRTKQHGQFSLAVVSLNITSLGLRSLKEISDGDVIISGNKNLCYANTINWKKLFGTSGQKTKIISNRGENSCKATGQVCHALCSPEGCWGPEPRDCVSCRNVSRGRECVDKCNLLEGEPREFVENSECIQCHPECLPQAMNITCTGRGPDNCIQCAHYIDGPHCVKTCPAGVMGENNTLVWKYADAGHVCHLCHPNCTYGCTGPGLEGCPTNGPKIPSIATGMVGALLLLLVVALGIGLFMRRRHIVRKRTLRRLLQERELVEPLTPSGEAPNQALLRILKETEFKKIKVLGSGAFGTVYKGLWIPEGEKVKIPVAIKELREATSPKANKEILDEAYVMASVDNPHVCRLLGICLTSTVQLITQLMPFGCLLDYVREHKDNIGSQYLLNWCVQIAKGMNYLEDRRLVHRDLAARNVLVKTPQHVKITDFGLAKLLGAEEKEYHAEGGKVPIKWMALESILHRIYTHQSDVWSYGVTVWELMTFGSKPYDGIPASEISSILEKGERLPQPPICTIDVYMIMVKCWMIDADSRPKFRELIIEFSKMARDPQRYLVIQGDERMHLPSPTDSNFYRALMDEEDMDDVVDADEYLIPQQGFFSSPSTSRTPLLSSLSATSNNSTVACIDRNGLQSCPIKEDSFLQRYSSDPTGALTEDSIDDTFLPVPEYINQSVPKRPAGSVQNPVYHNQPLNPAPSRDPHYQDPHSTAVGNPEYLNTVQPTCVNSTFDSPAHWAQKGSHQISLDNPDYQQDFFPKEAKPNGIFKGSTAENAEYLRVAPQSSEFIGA
HER2YVMA, sequence (P04626 with tags, fused parts or gaps INS775YVMA): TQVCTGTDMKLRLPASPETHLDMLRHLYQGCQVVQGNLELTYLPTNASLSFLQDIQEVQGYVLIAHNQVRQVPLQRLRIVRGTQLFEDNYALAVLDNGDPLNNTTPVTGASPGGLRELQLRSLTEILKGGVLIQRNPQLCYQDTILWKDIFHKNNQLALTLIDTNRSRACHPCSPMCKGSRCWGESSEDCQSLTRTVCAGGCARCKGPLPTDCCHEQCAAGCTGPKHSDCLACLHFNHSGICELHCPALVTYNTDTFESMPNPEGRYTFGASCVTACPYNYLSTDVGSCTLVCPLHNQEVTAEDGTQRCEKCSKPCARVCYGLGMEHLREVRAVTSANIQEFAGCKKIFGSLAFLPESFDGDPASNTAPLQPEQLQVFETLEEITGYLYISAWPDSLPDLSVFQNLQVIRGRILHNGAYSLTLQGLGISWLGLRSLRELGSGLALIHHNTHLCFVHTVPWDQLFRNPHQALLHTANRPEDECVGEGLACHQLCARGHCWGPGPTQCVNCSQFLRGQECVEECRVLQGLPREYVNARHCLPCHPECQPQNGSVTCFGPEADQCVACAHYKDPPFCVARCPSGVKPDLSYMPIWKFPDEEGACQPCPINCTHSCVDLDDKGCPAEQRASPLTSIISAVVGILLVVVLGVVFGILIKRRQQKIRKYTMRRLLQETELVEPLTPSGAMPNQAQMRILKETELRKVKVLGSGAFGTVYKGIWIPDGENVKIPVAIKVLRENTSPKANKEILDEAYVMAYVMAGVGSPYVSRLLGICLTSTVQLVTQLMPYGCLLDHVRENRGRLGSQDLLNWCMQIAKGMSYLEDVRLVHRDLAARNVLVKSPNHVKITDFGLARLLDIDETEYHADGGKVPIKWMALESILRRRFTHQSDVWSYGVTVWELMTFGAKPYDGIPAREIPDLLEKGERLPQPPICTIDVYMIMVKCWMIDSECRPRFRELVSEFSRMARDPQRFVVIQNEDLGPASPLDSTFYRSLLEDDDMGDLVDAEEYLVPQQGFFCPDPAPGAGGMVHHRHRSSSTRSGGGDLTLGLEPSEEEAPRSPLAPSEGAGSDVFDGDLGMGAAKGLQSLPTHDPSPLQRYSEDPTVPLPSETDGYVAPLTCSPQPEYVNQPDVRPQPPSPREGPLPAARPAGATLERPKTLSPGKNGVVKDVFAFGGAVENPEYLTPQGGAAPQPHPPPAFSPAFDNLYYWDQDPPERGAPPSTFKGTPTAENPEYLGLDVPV

| Compound | EC50 (EGFR) | Selectivity A431 EC50/BT474 EC50 (EGFR) | Selectivity A431 EC50/HEKYVMA EC50 (EGFR) | EC50 (HER2YVMA) |
| --- | --- | --- | --- | --- |
| Cc1ccc(Oc2ccc(Nc3ncnc4sc5c(c34)CCN(C(=O)/C=C/CN3CC(O)C3)C5)cc2C)cn1 [Compound 53] | 1000 to 10000 nM | C (C: ≥ 10 and < 20) | D (D: ≥ 5 and < 10) | 100 to 350 nM |
| Cc1cc(Nc2ncnc3sc4c(c23)CCN(C(=O)/C=C/CN2CC(C)OC(C)C2C)C4)ccc1Oc1ccc2ncnn2c1 (stereo not drawn) [Compound 83] | 1000 to 10000 nM | A (A: ≥100) | B (B: ≥ 20 and < 100) | < 100 nM |
| Cc1ccc(Oc2ccc(Nc3ncnc4sc5c(c34)CCN(C(=O)/C=C/CN(CCO)CCO)C5)cc2C)cn1 [Compound 37] | > 10000 nM | A (A: ≥100) | B (B: ≥ 20 and < 100) | 100 to 350 nM |
| CCN1CCN(C/C=C/C(=O)N2CCc3c(sc4ncnc(Nc5ccc(Oc6ccc(C)nc6)c(C)c5)c34)C2)CC1 [Compound 46] | 1000 to 10000 nM | B (B: ≥ 20 and < 100) | C (C: ≥ 10 and < 20) | < 100 nM |
| Cc1ccc(Oc2ccc(Nc3ncnc4sc5c(c34)C(C)CN(C(=O)/C=C/CN(C)C)C5)cc2C)cn1 (stereo not drawn) [Compound 98, (E)-4-(dimethylamino)-1-(5-methyl-4-((3-methyl-4-((6-methylpyridin-3-yl)oxy)phenyl)amino)-5,8-dihydropyrido[4′,3′:4,5]thieno[2,3-d]pyrimidin-7(6H)-yl)but-2-en-1-one] | 100 to 1000 nM | C (C: ≥ 10 and < 20) | D (D: ≥ 5 and < 10) | < 100 nM |
| Cc1ccc(Oc2ccc(Nc3ncnc4sc5c(c34)CCN(C(=O)/C=C/CN(C)C(C)(C)C)C5)cc2C)cn1 [Compound 33] | 100 to 1000 nM | B (B: ≥ 20 and < 100) | C (C: ≥ 10 and < 20) | < 100 nM |
| COc1ccc(Oc2ccc(Nc3ncnc4sc5c(c34)CCN(C(=O)/C=C/CN(C)C)C5)cc2C)cn1 [Compound 95, (E)-4-(Dimethylamino)-1-(4-((4-((6-methoxypyridin-3-yl)oxy)-3-methylphenyl)amino)-5,6-dihydropyrido[4′,3′:4,5]thieno[2,3-d]pyrimidin-7(8H)-yl)but-2-en-1-one] | 100 to 1000 nM | D (D: ≥ 5 and < 10) | C (C: ≥ 10 and < 20) | < 100 nM |
| Cc1cc(Nc2ncnc3sc4c(c23)CCN(C(=O)/C=C/CN(C)C)C4)ccc1Oc1ccc2ncnn2c1 [Compound 3, (E)-1-(4-((4-([1,2,4]triazolo[1,5-a]pyridin-6-yloxy)-3-methylphenyl)amino)-5,8-dihydropyrido[4′,3′:4,5]thieno[2,3-d]pyrimidin-7(6H)-yl)-4-(dimethylamino)but-2-en-1-one] | 100 to 1000 nM | B (B: ≥ 20 and < 100) | E (E: >1 and < 5) | 100 to 350 nM |
| Cc1ccc(Oc2ccc(Nc3ncnc4sc5c(c34)CCN(C(=O)/C=C/CNCC3CN(C)CCO3)C5)cc2C)cn1 (stereo not drawn) [Compound 48] | 100 to 1000 nM | B (B: ≥ 20 and < 100) | B (B: ≥ 20 and < 100) | < 100 nM |
| Cc1ccc(Oc2ccc(Nc3ncnc4sc5c(c34)CCN(C(=O)/C=C/CN3CCCOCC3)C5)cc2C)cn1 [Compound 42] | 100 to 1000 nM | B (B: ≥ 20 and < 100) | B (B: ≥ 20 and < 100) | < 100 nM |
| Cc1cc(Nc2ncnc3sc4c(c23)CCN(C(=O)/C=C/CN2CC(C)(C)OC(C)(C)C2)C4)ccc1Oc1ccc2ncnn2c1 [Compound 84] | > 10000 nM | A (A: ≥100) | B (B: ≥ 20 and < 100) | 100 to 350 nM |
| Cc1ccc(Oc2ccc(Nc3ncnc4sc5c(c34)CCN(C(=O)/C=C/CN3C[C@H]4CC[C@@H](C3)O4)C5)cc2C)cn1 [Compound 66] | 100 to 1000 nM | C (C: ≥ 10 and < 20) | C (C: ≥ 10 and < 20) | < 100 nM |
| CNC(=O)CNC/C=C/C(=O)N1CCc2c(sc3ncnc(Nc4ccc(Oc5ccc(C)nc5)c(C)c4)c23)C1 [Compound 39] | 1000 to 10000 nM | C (C: ≥ 10 and < 20) | D (D: ≥ 5 and < 10) | 100 to 350 nM |

Other lines, results leading:

| EC50 (EGFR) | Selectivity A431 EC50/BT474 EC50 (EGFR) | Selectivity A431 EC50/HEKYVMA EC50 (EGFR) | EC50 (HER2YVMA) | Compound |
| --- | --- | --- | --- | --- |
| < 100 nM | D (D: ≥ 5 and < 10) | E (E: >1 and < 5) | < 100 nM | Cc1cc(Nc2ncnc3sc4c(c23)CCN(C(=O)/C=C/CN(C)C)C4)ccc1Oc1ccc2[nH]ncc2c1 [Compound 22, (E)-1-(4-((4-((1H-indazol-5-yl)oxy)-3-methylphenyl)amino)-5,8-dihydropyrido[4′,3′:4,5]thieno[2,3-d]pyrimidin-7(6H)-yl)-4-(dimethylamino)but-2-en-1-one] |
| < 100 nM | D (D: ≥ 5 and < 10) | C (C: ≥ 10 and < 20) | < 100 nM | Cc1ccc(Oc2ccc(Nc3ncnc4sc5c(c34)CCN(C(=O)/C=C/CNCc3ccsc3)C5)cc2C)cn1 [Compound 52] |
| 100 to 1000 nM |  | B (B: ≥ 20 and < 100) | < 100 nM | CN(C)C/C=C/C(=O)N1CCc2c(sc3ncnc(Nc4ccc(Oc5ccc6ncnn6c5)c(Cl)c4)c23)C1 [Compound 5, (E)-1-(4-((4-([1,2,4]triazolo[1,5-a]pyridin-6-yloxy)-3-chlorophenyl)amino)-5,8-dihydropyrido[4′,3′:4,5]thieno[2,3-d]pyrimidin-7(6H)-yl)-4-(dimethylamino)but-2-en-1-one] |
| 100 to 1000 nM | D (D: ≥ 5 and < 10) | E (E: >1 and < 5) | < 100 nM | Cc1ccc(Oc2ccc(Nc3ncnc4sc5c(c34)CCN(C(=O)/C=C/CN[C@H]3CCC[C@H](O)C3)C5)cc2C)cn1 [Compound 73] |
| < 100 nM | C (C: ≥ 10 and < 20) | D (D: ≥ 5 and < 10) | < 100 nM | CN(C/C=C/C(=O)N1CCc2c(sc3ncnc(Nc4ccc(Oc5ccc6ncnn6c5)c(Cl)c4)c23)C1)C(C)(C)C [Compound 91] |
| < 100 nM | D (D: ≥ 5 and < 10) | D (D: ≥ 5 and < 10) | < 100 nM | Cc1ccc(Oc2ccc(Nc3ncnc4sc5c(c34)CCN(C(=O)/C=C/CN3CCC4(CCOC4)C3)C5)cc2C)cn1 (stereo not drawn) [Compound 67] |
